{"source": "paper PMC12606247", "about": "“Bidirectional communication between nucleotide and substrate binding sites in a type IV multidrug ABC transporter” (Nature Communications, 2025)", "key": {"BmrA NBD [1]": {"biological_target": "BmrA NBD (Bacillus subtilis, UniProt O06967, R389K)", "sequence (O06967 331-589 R389K)": "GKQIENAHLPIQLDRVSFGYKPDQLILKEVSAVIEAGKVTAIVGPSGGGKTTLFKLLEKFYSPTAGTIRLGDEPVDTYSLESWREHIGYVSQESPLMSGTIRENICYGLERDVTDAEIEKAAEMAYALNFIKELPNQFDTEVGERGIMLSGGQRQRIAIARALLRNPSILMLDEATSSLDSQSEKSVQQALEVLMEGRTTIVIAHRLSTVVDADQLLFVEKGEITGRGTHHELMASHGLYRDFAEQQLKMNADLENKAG", "test": "biochemical"}, "MsbA NBD": {"biological_target": "MsbA NBD (Escherichia coli, UniProt P60752)", "sequence (P60752 323-582)": "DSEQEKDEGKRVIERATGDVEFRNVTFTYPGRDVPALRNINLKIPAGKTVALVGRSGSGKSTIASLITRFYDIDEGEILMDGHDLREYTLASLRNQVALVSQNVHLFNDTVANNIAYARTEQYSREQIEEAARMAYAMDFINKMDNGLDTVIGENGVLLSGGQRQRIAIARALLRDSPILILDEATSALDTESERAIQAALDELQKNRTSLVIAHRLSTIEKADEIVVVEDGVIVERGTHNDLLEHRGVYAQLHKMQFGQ", "test": "1H, […]-HSQC NMR chemical shift perturbation", "format": "binding", "conditions": "50 mM BisTris pH 7, 50 mM NaCl, 298 K"}, "BmrA NBD [2]": {"biological_target": "BmrA NBD (Bacillus subtilis, UniProt O06967, K380A)", "sequence (O06967 331-589 K380A)": "as the sequence (O06967 331-589 R389K) above, with K50A, K59R counted along it", "test": "biochemical"}, "BmrA NBD [3]": {"biological_target": "BmrA NBD (Bacillus subtilis, UniProt O06967, R414K)", "sequence (O06967 331-589 R414K)": "as the sequence (O06967 331-589 R389K) above, with K59R, R84K counted along it", "test": "biochemical"}, "LmrA NBD": {"biological_target": "LmrA NBD (Lactococcus cremoris, UniProt P97046)", "sequence (P97046 330-590)": "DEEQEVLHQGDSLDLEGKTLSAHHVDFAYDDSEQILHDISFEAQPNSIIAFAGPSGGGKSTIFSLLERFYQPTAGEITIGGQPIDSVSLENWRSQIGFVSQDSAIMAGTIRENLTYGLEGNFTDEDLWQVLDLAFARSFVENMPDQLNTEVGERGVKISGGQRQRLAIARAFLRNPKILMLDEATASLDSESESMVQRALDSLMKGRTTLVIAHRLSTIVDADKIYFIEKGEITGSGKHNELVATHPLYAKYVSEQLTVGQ", "test": "1H, […]-HSQC NMR chemical shift perturbation", "format": "binding", "conditions": "50 mM BisTris pH 7, 50 mM NaCl, 298 K"}, "BmrA NBD [4]": {"biological_target": "BmrA NBD (Bacillus subtilis, UniProt O06967, R414A)", "sequence (O06967 331-589 R414A)": "as the sequence (O06967 331-589 R389K) above, with K59R, R84A counted along it", "test": "biochemical"}, "BmrA NBD [5]": {"biological_target": "BmrA NBD (Bacillus subtilis, UniProt O06967, W413F)", "sequence (O06967 331-589 W413F)": "as the sequence (O06967 331-589 R389K) above, with K59R, W83F counted along it", "test": "biochemical"}, "BmrA NBD [6]": {"biological_target": "BmrA NBD (Bacillus subtilis, UniProt O06967, R389M)", "sequence (O06967 331-589 R389M)": "as the sequence (O06967 331-589 R389K) above, with K59M counted along it", "test": "biochemical"}, "BmrA NBD [7]": {"biological_target": "T1, BmrA NBD (Bacillus subtilis, UniProt O06967)", "T1 sequence (O06967 331-589)": "as the sequence (O06967 331-589 R389K) above, with K59R counted along it", "test": "dissociation constant (method not stated in main text)", "format": "binding", "conditions": "read-out: KD, ADP"}, "BmrA full-length [8]": {"biological_target": "T2, BmrA full-length (Bacillus subtilis, UniProt O06967)", "T2 construct": "full-length half transporter, C-terminal His6 tag, E. coli C41(DE3); homodimer in DDM/cholate, MSP1E3D1 nanodiscs or inside-out vesicles", "T2 sequence (O06967 whole entry)": "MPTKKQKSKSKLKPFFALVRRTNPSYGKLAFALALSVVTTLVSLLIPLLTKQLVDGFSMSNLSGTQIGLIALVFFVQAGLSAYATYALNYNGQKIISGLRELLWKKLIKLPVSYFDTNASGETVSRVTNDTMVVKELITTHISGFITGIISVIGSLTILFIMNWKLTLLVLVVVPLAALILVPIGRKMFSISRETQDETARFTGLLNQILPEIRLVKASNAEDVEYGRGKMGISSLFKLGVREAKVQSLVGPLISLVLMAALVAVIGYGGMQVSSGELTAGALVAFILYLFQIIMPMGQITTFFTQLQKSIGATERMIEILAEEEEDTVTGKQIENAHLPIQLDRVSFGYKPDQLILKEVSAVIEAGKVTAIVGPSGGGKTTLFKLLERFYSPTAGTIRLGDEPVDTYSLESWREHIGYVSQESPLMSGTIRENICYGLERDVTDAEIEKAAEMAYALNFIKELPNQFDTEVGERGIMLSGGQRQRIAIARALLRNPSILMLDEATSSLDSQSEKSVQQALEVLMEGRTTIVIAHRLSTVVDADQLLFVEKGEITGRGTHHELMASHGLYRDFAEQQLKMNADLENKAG", "test": "[…] NMR of 5-fluorotryptophan-labelled protein (W413 line broadening)", "format": "binding", "conditions": "15 mM reserpine, MSP1E3D1 nanodiscs, E. coli polar lipids, 298 K"}, "BmrA full-length [9]": {"biological_target": "T2, BmrA full-length", "test": "HDX-MS (also fluorescence transport assay in inside-out vesicles)", "format": "binding", "conditions": "100 μM doxorubicin, nanodiscs, pD 8.0, 20 °C"}, "BmrA NBD [10]": {"biological_target": "T1, BmrA NBD", "test": "1H, […]-HSQC NMR chemical shift perturbation", "format": "binding", "conditions": "10 mM ATP, 50 mM BisTris pH 7, 50 mM NaCl, 298 K"}, "BmrA full-length [11]": {"biological_target": "T2, BmrA full-length", "test": "ATPase assay coupled to NADH oxidation (also […] NMR)", "format": "biochemical", "conditions": "10 mM MgCl2, pH 8, 37 °C; detergent, nanodiscs or liposomes"}}}
{"smiles": "Nc1ncnc2c1ncn2[C@@H]1O[C@H](COP(=O)(O)OP(=O)(O)O)[C@@H](O)[C@H]1O", "note": "[ADP]", "values": [{"measurement": "Kd", "setting": "BmrA NBD [1]", "value": "221 ± 105", "unit": "µM"}, {"measurement": "1H,15N-HSQC NMR chemical shift perturbation", "setting": "MsbA NBD; 10 mM ADP", "value": "(BmrA W413, LmrA W421, MsbA L415) responded to the addition of ATP or ADP"}, {"measurement": "Kd", "setting": "BmrA NBD [2]", "value": "14400 ± 3700", "unit": "µM"}, {"measurement": "Kd", "setting": "BmrA NBD [3]", "value": "266 ± 97", "unit": "µM"}, {"measurement": "1H,15N-HSQC NMR chemical shift perturbation", "setting": "LmrA NBD; 10 mM ADP", "value": "(BmrA W413, LmrA W421, MsbA L415) responded to the addition of ATP or ADP"}, {"measurement": "Kd", "setting": "BmrA NBD [4]", "value": "575 ± 43.5", "unit": "µM"}, {"measurement": "Kd", "setting": "BmrA NBD [5]", "value": "221 ± 54", "unit": "µM"}, {"measurement": "Kd", "setting": "BmrA NBD [6]", "value": "2890 ± 1460", "unit": "µM"}, {"measurement": "Kd", "setting": "BmrA NBD [7]", "value": "214 ± 43", "unit": "µM"}]}
{"smiles": "COC(=O)[C@H]1[C@H]2C[C@@H]3c4[nH]c5cc(OC)ccc5c4CCN3C[C@H]2C[C@@H](OC(=O)c2cc(OC)c(OC)c(OC)c2)[C@@H]1OC", "note": "[reserpine]", "values": [{"measurement": "19F NMR of 5-fluorotryptophan-labelled protein (W413 line broadening)", "setting": "BmrA full-length [8]", "value": "Addition of ATP or the substrate reserpine resulted in changes in chemical shift and linewidths"}]}
{"smiles": "COc1cccc2c1C(=O)c1c(O)c3c(c(O)c1C2=O)C[C@@](O)(C(=O)CO)C[C@@H]3O[C@H]1C[C@H](N)[C@H](O)[C@H](C)O1", "note": "[doxorubicin]", "values": [{"measurement": "HDX-MS (also fluorescence transport assay in inside-out vesicles)", "setting": "BmrA full-length [9]", "value": "in the absence and presence of doxorubicin showed decreased exchange in the TMD"}]}
{"smiles": "Nc1ncnc2c1ncn2[C@@H]1O[C@H](COP(=O)(O)OP(=O)(O)OP(=O)(O)O)[C@@H](O)[C@H]1O", "note": "[ATP]", "values": [{"measurement": "1H,15N-HSQC NMR chemical shift perturbation", "setting": "MsbA NBD; 10 mM ATP", "value": "(BmrA W413, LmrA W421, MsbA L415) responded to the addition of ATP or ADP"}, {"measurement": "1H,15N-HSQC NMR chemical shift perturbation", "setting": "BmrA NBD [10]", "value": "(BmrA W413, LmrA W421, MsbA L415) responded to the addition of ATP or ADP"}, {"measurement": "1H,15N-HSQC NMR chemical shift perturbation", "setting": "LmrA NBD; 10 mM ATP", "value": "(BmrA W413, LmrA W421, MsbA L415) responded to the addition of ATP or ADP"}, {"measurement": "ATPase assay coupled to NADH oxidation (also 19F NMR)", "setting": "BmrA full-length [11]", "value": "ATPase activity of purified BmrA full-length WT, K380A and hinge mutant constructs was determined"}]}
